Assay results published in patent US11484529B2, “Desmethylanethole trithione derivatives for the treatment of diseases linked to mitochondrial reactive oxygen species (ROS) production” (OP2 Drugs, priority 2017, dated 2022).

Assays:
[1] = system: site IQ; assay: ROS/H2O2 production, site targeted individually (96-well Amplex Red), 10 mM succinate alone; type: biochemical, rat; conditions: 0 to 80 μM; effect at concentrations as low as 2.5 μM
Procedure: After freshly isolating mitochondria from rat heart, then measuring protein quantity of the mitochondrial suspension, H2O2 production in response to the exogenous addition of increasing concentrations of AOL, AOX and Oltipraz was measured fluorimetrically with Amplex Red and horseradish peroxidase (HRP).
The two major sites of mitochondrial ROS/H2O2 production were targeted individually using the combination of succinate (energy substrate of respiratory complex 2) and known inhibitors of respiratory chain, namely for site IQ, 10 mM succinate alone (CCCP as positive control) and for site IIIQouter, 10 mM succinate, 4 μM rotenone and 2.5 μM antimycin A (myxothiazol as positive control). These “reaction” solutions were designed to generate maximal rates of ROS/H2O2 production predominantly from a single site within the chain (Quinlan et al. 2013. Redox Biol. 1:304-12).
For measurement, a working solution of 50 μM Amplex red reagent and 20 μg/ml HRP was mixed to the reaction buffer into the corresponding wells of a 96-well plate (Greiner 96 F-bottom), in the absence or presence of increasing concentrations (from 0 to 80 μM) of AOL, AOX or Oltipraz. Addition of mitochondria to a final concentration of 0.125 mg/mL per well initiated the assay. The appropriate total volume per microplate well was 200 μL.
Plates were incubated in the dark at room temperature for 20-25 minutes. A double orbital shaking (100 rpm-3 seconds) was applied before reading the endpoint fluorescence values on a CLARIOstar plate reader (BMG LABTECH GmbH, Germany). In fact, H2O2 reacts with Amplex Red in a 1:1 stoichiometry, yielding the fluorescent compound resorufin that was analyzed using the following optic settings (excitation wavelength at 546-20 nm; emission at 600-40 nm; gain: 750).
Also, an H2O2 standard curve, with concentrations ranging from 0 to 5 μM, was prepared in the experimental buffer that consisted in (in mM): 140 sucrose, 100 KCl, 1 EGTA, 20 MgCl2, 10 KH2PO4, and 1 g/L (w/v) BSA essentially fatty acid free (pH 7.2). […]

[2] = system: H460 cells; assay: Oxygen consumption of resting carcinoma cells (oxygraphy); type: cell-based, human; conditions: 0 to 40 μM
Procedure: Human non-small cell carcinoma cell line H460 and A549 were obtained from ATCC. Cells were cultured in growth medium consisting of DMEM (GIBCO), 10% FBS (GIBCO) and 100 units of penicillin and 100 μg/mL streptomycin (GIBCO). The cells were maintained in either 75-cm^2 T-flasks or 175-cm^2 T-flasks (BD Biosciences) in an incubator (model 3100 series, Forma Scientific, Marietta, Ohio) controlled at 37° C., 95% humidity, and 5% CO2. Cell culture medium was refreshed every other day. Every 2 to 3 days, H460 and A549 cultures were detached from the flasks using a 0.25% trypsin solution (Gibco) and subcultured. All cultures were maintained at 80-90% confluence at the time of subculture.
The effects of AOX (0 to 40 μM) were assessed on carcinoma cells using the classical oxygraphic approach and compared to the effects of sister molecule AOL.
Oxygen consumption of H460 resting cells has been measured continuously and increasing concentrations of AOL and AOX (0 to 40 μM) have been injected to the preparation (FIG. 24).

Row | Structure (SMILES) | inhibition of ROS production in site IQ [1] | rate of oxygen consumption by H460 cells [2]
1 | COc1ccc(-c2cc(=S)ss2)cc1 [AOL, 5-(4-methoxyphenyl)-3H-1,2-dithiole-3-thione] | strongly inhibit the ROS production by complex I | no change in the rate of oxygen consumption
2 | Oc1ccc(-c2cc(=S)ss2)cc1 [AOX, 5-(4-hydroxyphenyl)-3H-1,2-dithiole-3-thione] | strongly inhibit the ROS production by complex I | no change in the rate of oxygen consumption
